Reference: US12427179B2, “Compositions and methods for diagnosis and treatment of neurodegenerative diseases” (EPITRACKER, INC., priority 2019, dated 2025)

Legend:
[1] = test system: human primary cell-based systems; assay: BioMAP Diversity PLUS panel, phenotypic profiling; conditions: tested at 6.7 and/or 20 μM; 24 to 72 hours
Protocol: (§1) Anti-inflammatory phenotypic profiling was conducted across 12 human primary cell-based systems as part of DiscoverX's BioMAP Diversity Plus program. These systems are designed to model complex human tissue and disease biology of the vasculature, skin, lung, and inflammatory tissues. Quantitative measurements of biomarker activities across this broad panel were used to assess each biochemical's anti-inflammatory activity at four concentrations ([…] and 2.2, 6.7 and 20 μM). […] Protein-based biomarkers from activated cell systems were measured and compared with controls.
(§2) The Diversity PLUS panel allows test agent characterization in an unbiased way across a broad set of systems modeling various human disease states. These systems are designed to model complex human tissue and disease biology of the vasculature, skin, lung, and inflammatory tissues. Quantitative measurements of 148 biomarker activities across this broad panel, along with comparative analysis of biological activities from known bioactive agents, were used to predict and compare the efficacy and function of each selected compound at selected concentrations (6.7 and/or 20 μM).
(§3) BioMAP systems are constructed with one or more primary cell types from healthy human donors, with stimuli (such as cytokines or growth factors) added to capture relevant signaling networks that naturally occur in human tissue or pathological conditions. Vascular biology is modeled in both a Th1 (3C system) and a Th2 (4H system) inflammatory environment, as well as in a Th1 inflammatory state specific to arterial smooth muscle cells (CASM3C system). Additional systems recapitulate aspects of the systemic immune response including monocyte-driven Th1 inflammation (LPS system) or T cell stimulation (SAg system), chronic Th1 inflammation driven by macrophage activation (lMphg system) and the T cell-dependent activation of B cells that occurs in germinal centers (BT system). The BE3C system (Th1) and the BF4T system (Th2) represent airway inflammation of the lung, while the MyoF system models myofibroblast-lung tissue remodeling. Lastly, skin biology is addressed in the KF3CT system modeling Th1 cutaneous inflammation and the HDF3CGF system modeling wound healing.
(§4) Each test agent generates a signature BioMAP profile that is created from the changes in protein biomarker readouts within individual system environments. Biomarker readouts (7-17 per system) are selected for therapeutic and biological relevance, are predictive for disease outcomes or specific drug effects and are validated using agents with known mechanism of action (MoA). Each readout is measured quantitatively by immune-based methods that detect protein (e.g., ELISA) or functional assays that measure proliferation and viability. BioMAP readouts are diverse and include cell surface receptors, cytokines, chemokines, matrix molecules and enzymes. In total, the Diversity PLUS panel contains 148 biomarker readouts that capture biological changes that occur within the physiological context of the particular BioMAP system.
(§5) Activated BioMAP systems were incubated with each compound for 24 to 72 hours. Protein-based biomarkers from activated cell systems were measured and compared with non-treated control systems.

[2] = test system: BE3C: Bronchial epithelial cells (IL-1β, IFNγ, TNFα); assay: BioMAP BE3C system; type: cell-based, human; conditions: at the compound's active concentration
Source text: (§6) The Diversity PLUS panel allows test agent characterization in an unbiased way across a broad set of systems modeling various human disease states. These systems are designed to model complex human tissue and disease biology of the vasculature, skin, lung, and inflammatory tissues.
as §3
as §4, with “enzymes.” for “enzymes. In total, the Diversity PLUS panel contains 148 biomarker readouts that capture biological changes that occur within the physiological context of the particular BioMAP system.”
as §5

[3] = test system: CASM3C: Coronary artery smooth muscle cells (IL-1β, TNFα, IFNγ); assay: BioMAP CASM3C system; type: cell-based, human; conditions: at the compound's active concentration
Source text: as §6, §3
as §4, with “enzymes.” for “enzymes. In total, the Diversity PLUS panel contains 148 biomarker readouts that capture biological changes that occur within the physiological context of the particular BioMAP system.”
as §5

[4] = test system: /Mphg: Macrophages, venular endothelial cells (TLR2 ligand); assay: BioMAP /Mphg system; type: cell-based, human; conditions: at the compound's active concentration
Source text: as §2, §3
as §4, with “system. […]” for “system.”
as §5

[5] = test system: 3C system (Th1 vascular biology); assay: BioMAP 3C system; type: cell-based, human; conditions: at the compound's active concentration
Source text: as §4, with “The Diversity PLUS panel allows test agent characterization in an unbiased way across a broad set of systems modeling various human disease states. These systems are designed to model complex human tissue and disease biology of the vasculature, skin, lung, and inflammatory tissues. […] BioMAP systems are constructed with one or more primary cell types from healthy human donors, with stimuli (such as cytokines or growth factors) added to capture relevant signaling networks that naturally occur in human tissue or pathological conditions. […] Each test” for “Each test”, “BioMAP system. […]” for “BioMAP system.”

[6] = test system: BT: Peripheral blood mononuclear cells, B cells (α-IgM, TCR ligands); assay: BioMAP BT system; type: cell-based, human
Protocol: as §1, with “controls. Biomarker activities were annotated when 2 or more consecutive concentrations change in the same directions relative to vehicle controls, were outside of the significance envelope and had at least one concentration with an effect size>20% (log 10 ratio)>0.1.” for “controls.”
(§7) In the first system, human primary peripheral blood mononuclear cells and venular endothelial cells were stimulated with lipopolysaccharide (LPS) and incubated with the test agent, drug control, or vehicle control for 24 hours. In the second system, peripheral blood mononuclear cells and B cells were stimulated with α-IgM and T cell receptor ligands and incubated with the test agent, drug control, or vehicle control for 24 hours. In both systems, a negative, non-stimulated system was also included.
as §2, §3
as §4, with “system. […]” for “system.”

[7] = test system: LPS: Venular endothelial cells, peripheral blood mononuclear cells (TLR4 ligand); assay: BioMAP LPS system; type: cell-based, human
Protocol: as §1, with “controls. Biomarker activities were annotated when 2 or more consecutive concentrations change in the same directions relative to vehicle controls, were outside of the significance envelope and had at least one concentration with an effect size>20% (log 10 ratio)>0.1.” for “controls.”
as §7, §2, §3
as §4, with “system. […]” for “system.”

[8] = test system: 4H: Venular endothelial cells (IL-4, histamine); assay: BioMAP 4H system; type: cell-based, human; conditions: at the compound's active concentration
Source text: as §2
BioMAP systems are constructed with one or more primary cell types from healthy human donors, with stimuli (such as cytokines or growth factors) added to capture relevant signaling networks that naturally occur in human tissue or pathological conditions. Vascular biology is modeled in both a Th1 (3C system) and a Th2 (4H system) inflammatory environment, as well as in a Th1 inflammatory state specific to arterial smooth muscle cells (CASM3C system). […]
as §4, with “system. […]” for “system.”
as §5

[9] = test system: SAg: Venular endothelial cells, peripheral blood mononuclear cells (TCR ligands); assay: BioMAP SAg system; type: cell-based, human; conditions: SAg system; at the compound's active concentration
Protocol: as §1, with “controls. Biomarker activities were annotated when 2 or more consecutive concentrations change in the same directions relative to vehicle controls, were outside of the significance envelope and had at least one concentration with an effect size>20% (log 10 ratio)>0.1.” for “controls.”
In this system, human primary peripheral blood mononuclear cells and human umbilical vein endothelial cells were stimulated with T-cell receptor ligands and incubated with the test agent, drug control, or vehicle control for 24 hours. A negative, non-stimulated system was also included. […] This antiproliferative activity was lost at higher concentrations (20 μM). In this system, T cell proliferation is considered a critical event driving an inflammatory response.
as §2, with “μM). […]” for “μM).”
as §4, with “system. […]” for “system.”

[10] = test system: HDF3CGF: Dermal fibroblasts; assay: BioMAP HDF3CGF system; type: cell-based, human; conditions: at the compound's active concentration
Source text: as §2, §3
as §4, with “system. Specific BioMAP activities have been correlated to in vivo biology, and multiparameter BioMAP profiles have been used to distinguish compounds based on MoA and target selectivity across diverse physiological systems.” for “system.”
as §5

[11] = BT system, at the compound's active concentration
[12] = at the compound's active concentration

O[C@H]1[C@H](O)[C@@H](O)[C@H](O)[C@@H](O)[C@H]1O [myo-inositol]
Active concentrations [1]: 6.7 µM
MMP-1, log10 reduction vs nontreated controls [2]: −0.12 log10
M-CSF, log10 reduction vs nontreated controls ([3]; CASM3C system): −0.10 log10

N[C@@H](CCC(=O)N[C@@H](Cc1c[nH]cn1)C(=O)O)C(=O)O [gamma-glutamylhistidine]
Active concentrations [1]: 20 µM
IL-8, log10 reduction vs nontreated controls [4]: −0.15 log10
MMP-1, log10 reduction vs nontreated controls [2]: −0.10 log10
Tissue factor, log10 reduction vs nontreated controls [5]: −0.12 log10
TNF-alpha (sTNF-alpha), log10 reduction vs nontreated controls [6, 11]: −0.18 log10
CD40, log10 reduction vs nontreated controls [7, 12]: −0.11 log10
E-selectin, log10 reduction vs nontreated controls [7, 12]: −0.11 log10
Thrombomodulin, log10 reduction vs nontreated controls ([3]; CASM3C system): −0.12 log10

COc1cc(C(O)C(=O)O)ccc1O (centres unmarked) [vanillylmandelate (VMA), vanillylmandelate]
IL-8, log10 reduction vs nontreated controls [4]: −0.18 log10

CC(=O)N[C@H](C(=O)O)[C@@H](C)O [N-acetylthreonine]
VEGFR2, log10 reduction vs nontreated controls [8]: −0.16 log10
Active concentrations [1]: 20 µM
Secreted IgG, log10 reduction vs nontreated controls [6, 11]: −0.41 log10

C[C@H](CCC(=O)O)[C@H]1CC[C@H]2[C@@H]3[C@H](O)C[C@@H]4C[C@H](O)CC[C@]4(C)[C@H]3C[C@H](O)[C@]12C [cholate]
Active concentrations [1]: 20 µM
MMP-1, log10 reduction vs nontreated controls [2]: −0.10 log10
Tissue factor, log10 reduction vs nontreated controls [7, 12]: −0.13 log10
Thrombomodulin, log10 reduction vs nontreated controls ([3]; CASM3C system): −0.12 log10

O=C(O)c1cc(O)c2cccc(O)c2n1 [xanthurenate]
Secreted interleukin 6 (IL-6), log10 reduction vs controls ([6]; BT system (second system)): −0.13 log10
TNF-alpha (sTNF-alpha), log10 reduction vs nontreated controls [6, 11]: −0.19 log10
Secreted prostaglandin E2 (PGE2), log10 reduction vs nontreated controls ([7]; 20 μM): −0.09 log10

O=c1[nH]c(=O)c2ncn([C@@H]3O[C@H](CO)[C@@H](O)[C@H]3O)c2[nH]1 [xanthosine]
Active concentrations [1]: 6.7 to 20 µM
IL-8, log10 reduction vs nontreated controls [4]: −0.13 log10
CD40, log10 reduction vs nontreated controls [7, 12]: −0.12 log10
Tissue factor, log10 reduction vs nontreated controls [7, 12]: −0.13 log10
Tissue factor, log10 reduction vs nontreated controls ([3]; CASM3C system (system cell not printed on the line)): −0.13 log10
Thrombomodulin, log10 reduction vs nontreated controls ([3]; CASM3C system): −0.11 log10

N=C(N)NCCCC(=O)O [4-guanidinobutanoate]
CD38, log10 reduction vs nontreated controls [9]: −0.10 log10
T cell proliferation, log10 reduction vs nontreated controls [9]: −0.13 log10
MCP-1, log10 reduction vs nontreated controls [8]: −0.12 log10
Active concentrations [1]: 6.7 to 20 µM
CXCL10, log10 reduction vs nontreated controls [10]: −0.11 log10
CXCL11, log10 reduction vs nontreated controls [10]: −0.19 log10
Collagen III, log10 reduction vs nontreated controls [10]: −0.30 log10
Fibroblast proliferation, log10 reduction vs nontreated controls [10]: −1.09 log10
TIMP-1, log10 reduction vs nontreated controls [10]: −0.14 log10
VCAM-1, log10 reduction vs nontreated controls [10]: −0.19 log10
Secreted IgG, log10 reduction vs nontreated controls [6, 11]: −0.49 log10
TNF-alpha (sTNF-alpha), log10 reduction vs nontreated controls [6, 11]: −0.10 log10
sIL-17A, log10 reduction vs nontreated controls [6, 11]: −0.17 log10
